Laboratory results published in article PMC10442743 (Dalton Transactions (Cambridge, England : 2003), 2023).

System: L929
Assay: MTT cytotoxicity assay, L929 fibroblasts (and selectivity index)
Assay type: cell-based, mouse
Conditions: 24 h exposure, MTT; read-out: IC50 (µM) (average ± standard deviation) 24 h L929
Procedure: (§1) The cytotoxicity of 1–11CA was assessed against human breast cancer MCF-7 and MDA-MB-231 cells, and non-tumorigenic adherent mouse fibroblast connective tissue L929 cells using the MTT assay after 24 and 72 h (Tables S5 ^† and Table 1, respectively).
(§2) Then, necessary dilutions were made using the supplement DMEM, to prepare the range of tested concentrations. Since DMSO was used to solubilize the compounds, a supplemented DMEM + DMSO (at the same percentage as in the sequential dilutions) was considered as a control in the 3-[4,5-dimetylthiazole-2-yl]-2,5-diphenyltetrazolium bromide (MTT) assay.
(§3) L929, MCF-7, and MDA-MB-231 cell lines were cultured in DMEM supplemented with 10% (v/v) FBS and 1% (v/v) of penicillin–streptomycin. The cells were incubated in a humidified chamber at 37 °C under saturated air with a 5% CO2 atmosphere. Cells were passed at 80%–90% of confluency with 0.25% (w/v) trypsin and the cell culture media was changed every 2–3 days.
(§4) The compounds were tested on two breast cancer cell lines (MCF-7 and MDA-MB-231) and L929 fibroblasts, used as a reference for the safety evaluation according to ISO 10993-1:2009 “Biological evaluation of medical devices”. Cells were seeded on sterile 96-well plates at 50 000 cells per well (L929) and 20 000 cells per well (MCF-7 and MDA-MB-231) in supplemented DMEM medium (100 μL) for 24 h. The culture medium was removed and new media containing different concentrations of the compounds (0–1000 μM) was added to the wells (100 μL). Control cells were incubated under the same conditions in the absence of a compound. Cells were incubated for 24 and 72 h under the same conditions described above. Then, the medium was removed, and the cells were incubated with 3-(4,5-dimethylthiazol-2-yl)-2,5-diphenyltetrazolium bromide (MTT; 0.5 mg mL^−1) for 3 h. After this time, the medium was removed, and formazan crystals were solubilized with DMSO (100 μL per well). The absorbance in each well was read on a SynergyTM HT Multimode microplate reader (BioTek Instruments; Winooski, VT, USA) at 570 and 630 nm (for background correction), and the cell viability was calculated according to the following equation (eqn (1)):1 [drawing 3] where OD570(sample) and OD630(sample) are the optical densities of the solutions containing the compounds and OD570(control) and OD630(control) are controls without compound.
(§5) Each apoptosis value determination represents the mean ± standard deviation of 2 independent assays. The IC50 values were obtained using GraphPad Prism software and ANOVA (analysis of variance) was performed to determine the statistical difference between the IC50 values of different cell lines.

Row | Structure (SMILES) | IC50
1 | Cc1ccc(C(C)C)cc1.O=C1[O][Ru]([PH]23CN4CN(CN(C4)C2)C3)[O]C1=O [Compound 7] | 570 ± 18 µM
2 | Cc1ccc(CCC(=O)O)cc1.O=C1[O][Ru]([PH]23CN4CN(CN(C4)C2)C3)[O]C1=O [Compound 8] | 572 ± 33 µM

Same assay, conditions: 72 h exposure, MTT; read-out: IC50 (μM) (average ± standard deviation) 72 h L929

Row | Structure (SMILES) | IC50
3 | Cc1ccc(C(C)C)cc1.O=C1[O][Ru]([PH]23CN4CN(CN(C4)C2)C3)[O]C1=O [Compound 7] | 104 ± 4 µM
4 | Cc1ccc(CCC(=O)O)cc1.O=C1[O][Ru]([PH]23CN4CN(CN(C4)C2)C3)[O]C1=O [Compound 8] | 50 ± 3 µM

Same assay, conditions: sodium counteranion salts, 24 h; read-out: IC50 in L929 cell line Mean ± SD 24 h

Row | Structure (SMILES) | IC50
5 | F[B-](F)(F)F.[Na+] [NaBF4, reference compound] | 923 ± 77 µM
6 | c1ccc([B-](c2ccccc2)(c2ccccc2)c2ccccc2)cc1 [NaBPh4, reference compound] | 186 ± 11 µM
7 | [Cl-].[Na+] [NaCl, reference compound] | 782 ± 55 µM
8 | O=[N+]([O-])[O-].[Na+] [NaNO3, reference compound] | > 1000 µM
9 | O=S(=O)([O-])C(F)(F)F.[Na+] [NaOTf, reference compound] | > 1000 µM
10 | F[P-](F)(F)(F)(F)F.[Na+] [NaPF6, reference compound] | 759 ± 77 µM
11 | [F][Sb-]([F])([F])([F])([F])[F].[Na+] [NaSbF6, reference compound] | 693 ± 53 µM

Same assay, conditions: sodium counteranion salts, 72 h; read-out: IC50 in L929 cell line Mean ± SD 72h

Row | Structure (SMILES) | IC50
12 | F[B-](F)(F)F.[Na+] [NaBF4, reference compound] | 386 ± 49 µM
13 | c1ccc([B-](c2ccccc2)(c2ccccc2)c2ccccc2)cc1 [NaBPh4, reference compound] | 55 ± 4 µM
14 | [Cl-].[Na+] [NaCl, reference compound] | 274 ± 31 µM
15 | O=[N+]([O-])[O-].[Na+] [NaNO3, reference compound] | 331 ± 57 µM
16 | O=S(=O)([O-])C(F)(F)F.[Na+] [NaOTf, reference compound] | 159 ± 20 µM
17 | F[P-](F)(F)(F)(F)F.[Na+] [NaPF6, reference compound] | 297 ± 24 µM
18 | [F][Sb-]([F])([F])([F])([F])[F].[Na+] [NaSbF6, reference compound] | 180 ± 22 µM

System: MCF-7
Assay: MTT cytotoxicity assay, MCF-7 cells
Assay type: cell-based, human
Conditions: 24 h exposure, MTT; read-out: IC50 (µM) (average ± standard deviation) 24 h MCF-7
Procedure: as §1, §2, §3, §4, §5

Row | Structure (SMILES) | IC50
19 | Cc1ccc(C(C)C)cc1.O=C1[O][Ru]([PH]23CN4CN(CN(C4)C2)C3)[O]C1=O [Compound 7] | 407 ± 17 µM
20 | Cc1ccc(CCC(=O)O)cc1.O=C1[O][Ru]([PH]23CN4CN(CN(C4)C2)C3)[O]C1=O [Compound 8] | 213 ± 8 µM

Same assay, conditions: 72 h exposure, MTT; read-out: IC50 (μM) (average ± standard deviation) 72 h MCF-7

Row | Structure (SMILES) | IC50
21 | Cc1ccc(C(C)C)cc1.O=C1[O][Ru]([PH]23CN4CN(CN(C4)C2)C3)[O]C1=O [Compound 7] | 62 ± 4 µM
22 | Cc1ccc(CCC(=O)O)cc1.O=C1[O][Ru]([PH]23CN4CN(CN(C4)C2)C3)[O]C1=O [Compound 8] | 41 ± 5 µM

Same assay, conditions: sodium counteranion salts, 24 h; read-out: IC50 in MCF-7 cell line Mean ± SD 24 h

Row | Structure (SMILES) | IC50
23 | F[B-](F)(F)F.[Na+] [NaBF4, reference compound] | > 2000 µM
24 | c1ccc([B-](c2ccccc2)(c2ccccc2)c2ccccc2)cc1 [NaBPh4, reference compound] | 217 ± 44 µM
25 | [Cl-].[Na+] [NaCl, reference compound] | > 2000 µM
26 | O=[N+]([O-])[O-].[Na+] [NaNO3, reference compound] | > 2000 µM
27 | O=S(=O)([O-])C(F)(F)F.[Na+] [NaOTf, reference compound] | > 2000 µM
28 | F[P-](F)(F)(F)(F)F.[Na+] [NaPF6, reference compound] | > 2000 µM
29 | [F][Sb-]([F])([F])([F])([F])[F].[Na+] [NaSbF6, reference compound] | > 1000 µM

Same assay, conditions: sodium counteranion salts, 72 h; read-out: IC50 in MCF-7 cell line Mean ± SD 72h

Row | Structure (SMILES) | IC50
30 | F[B-](F)(F)F.[Na+] [NaBF4, reference compound] | 343 ± 39 µM
31 | c1ccc([B-](c2ccccc2)(c2ccccc2)c2ccccc2)cc1 [NaBPh4, reference compound] | 102 ± 14 µM
32 | [Cl-].[Na+] [NaCl, reference compound] | 280 ± 33 µM
33 | O=[N+]([O-])[O-].[Na+] [NaNO3, reference compound] | 262 ± 38 µM
34 | O=S(=O)([O-])C(F)(F)F.[Na+] [NaOTf, reference compound] | 279 ± 30 µM
35 | F[P-](F)(F)(F)(F)F.[Na+] [NaPF6, reference compound] | 311 ± 27 µM
36 | [F][Sb-]([F])([F])([F])([F])[F].[Na+] [NaSbF6, reference compound] | 234 ± 24 µM

System: MDA-MB-231
Assay: MTT cytotoxicity assay, MDA-MB-231 cells
Assay type: cell-based, human
Conditions: 24 h exposure, MTT; read-out: IC50 (µM) (average ± standard deviation) 24 h MDA-MB-231
Procedure: as §1, §2, §3, §4, §5

Row | Structure (SMILES) | IC50
37 | Cc1ccc(C(C)C)cc1.O=C1[O][Ru]([PH]23CN4CN(CN(C4)C2)C3)[O]C1=O [Compound 7] | 513 ± 16 µM
38 | Cc1ccc(CCC(=O)O)cc1.O=C1[O][Ru]([PH]23CN4CN(CN(C4)C2)C3)[O]C1=O [Compound 8] | 284 ± 7 µM

Same assay, conditions: 72 h exposure, MTT; read-out: IC50 (μM) (average ± standard deviation) 72 h MDA-MB-231

Row | Structure (SMILES) | IC50
39 | Cc1ccc(C(C)C)cc1.O=C1[O][Ru]([PH]23CN4CN(CN(C4)C2)C3)[O]C1=O [Compound 7] | 83 ± 5 µM
40 | Cc1ccc(CCC(=O)O)cc1.O=C1[O][Ru]([PH]23CN4CN(CN(C4)C2)C3)[O]C1=O [Compound 8] | 50 ± 2 µM

Same assay, conditions: sodium counteranion salts, 24 h; read-out: IC50 in MDA-MB-231 cell line Mean ± SD 24 h

Row | Structure (SMILES) | IC50
41 | F[B-](F)(F)F.[Na+] [NaBF4, reference compound] | > 2000 µM
42 | c1ccc([B-](c2ccccc2)(c2ccccc2)c2ccccc2)cc1 [NaBPh4, reference compound] | 441 ± 61 µM
43 | [Cl-].[Na+] [NaCl, reference compound] | > 2000 µM
44 | O=[N+]([O-])[O-].[Na+] [NaNO3, reference compound] | > 2000 µM
45 | O=S(=O)([O-])C(F)(F)F.[Na+] [NaOTf, reference compound] | > 2000 µM
46 | F[P-](F)(F)(F)(F)F.[Na+] [NaPF6, reference compound] | > 1000 µM
47 | [F][Sb-]([F])([F])([F])([F])[F].[Na+] [NaSbF6, reference compound] | 689 ± 61 µM

Same assay, conditions: sodium counteranion salts, 72 h; read-out: IC50 in MDA-MB-231 cell line Mean ± SD 72h

Row | Structure (SMILES) | IC50
48 | F[B-](F)(F)F.[Na+] [NaBF4, reference compound] | 347 ± 19 µM
49 | c1ccc([B-](c2ccccc2)(c2ccccc2)c2ccccc2)cc1 [NaBPh4, reference compound] | 149 ± 13 µM
50 | [Cl-].[Na+] [NaCl, reference compound] | 398 ± 38 µM
51 | O=[N+]([O-])[O-].[Na+] [NaNO3, reference compound] | 334 ± 23 µM
52 | O=S(=O)([O-])C(F)(F)F.[Na+] [NaOTf, reference compound] | 354 ± 27 µM
53 | F[P-](F)(F)(F)(F)F.[Na+] [NaPF6, reference compound] | 329 ± 17 µM
54 | [F][Sb-]([F])([F])([F])([F])[F].[Na+] [NaSbF6, reference compound] | 236 ± 13 µM
